Measurements as given in publication PMC3116189, “Novel Natural Inhibitors of CYP1A2 Identified by in Silico and in Vitro Screening” (International Journal of Molecular Sciences, 2011).
“Also recorded” adds a separate entry of the source.

These compounds were tested against T1, CYP1A2 (Homo sapiens, UniProt P05177) (assay: in vitro). Details: 1 μM active ingredient, Rh CYP1A2-mediated phenacetin O-deethylation, test dataset of 202 herb ingredients.
T1 sequence (P05177 1-516): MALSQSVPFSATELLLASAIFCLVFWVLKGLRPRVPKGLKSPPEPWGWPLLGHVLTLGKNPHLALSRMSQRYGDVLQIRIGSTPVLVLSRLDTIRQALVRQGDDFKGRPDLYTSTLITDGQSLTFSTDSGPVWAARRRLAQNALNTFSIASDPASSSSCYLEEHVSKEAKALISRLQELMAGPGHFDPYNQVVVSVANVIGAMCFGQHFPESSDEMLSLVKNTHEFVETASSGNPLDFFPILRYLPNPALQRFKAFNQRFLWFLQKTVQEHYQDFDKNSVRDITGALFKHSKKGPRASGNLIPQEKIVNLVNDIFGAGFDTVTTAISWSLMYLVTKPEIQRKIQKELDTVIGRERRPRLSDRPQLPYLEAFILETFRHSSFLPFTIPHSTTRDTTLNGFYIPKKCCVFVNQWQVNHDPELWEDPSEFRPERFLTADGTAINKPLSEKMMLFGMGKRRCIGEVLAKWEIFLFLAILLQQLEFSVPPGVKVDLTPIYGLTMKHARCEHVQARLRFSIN
Assay type: biochemical
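Note: recombinant CYP1A2 incubated for 1 h at 37 °C, with the reaction started by an NADPH-generating system.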
Description: A total of 18 candidate compounds selected by pharmacophore and docking were examined for their potential to inhibit rhCYP1A2 phenacetin O-deethylation activity at a test concentration of 1 μM.
The basic incubation medium contained 100 mM potassium phosphate buffer (PH 7.4), 50 pmol recombinant human CYP1A2, 25 μM phenacetin and 1 μM active ingredients. The final incubation volume was 200 μL. After 5 min pre-incubation at 37 °C, the reaction was initiated by the addition of NADPH-generating system (5 mM MgCl2, 10 mM glucose 6-phosphates, 1 mM NADPH, and 2.5 U per mL glucose 6-phosphate dehydrogenase). Incubations were performed in a 37 °C shaking water bath for 1 h. Reactions were stopped by adding 0.4 mL of ice-cold acetonitrile containing 0.2 mg/L tinidazole (IS). […] The column was maintained at 35 °C and the injection volume was 10 μL.

Compound	% of Control Indication Activity (Mean) [%]
Astragaloside	> 90
Echinacoside	> 90
Ginkgolide B	> 90
Lobetyolin	> 90
Pinoresinol diglucoside	> 90
Rhodiosin	> 90
Salvianolic acid B	> 90
Veratramin	> 90

Same assay, conditions: 1 μM test concentration

Compound	inhibitory activity to CYP1A2 (10% or greater inhibition at 1 μM)
COc1cc(-c2oc3cc(O)c(OC)c(O)c3c(=O)c2O)ccc1O [zhang 817, Spinacetin]	found to have inhibition of CYP1A2 activity; also recorded: confirmed to have inhibitory activities to CYP1A2

Same assay, conditions: human, recombinant enzyme, pH 7.4

activity at 1 h, 1 μM [%]	Compound
> 90	C[C@@H]1O[C@@H](Oc2c(-c3ccc(O)cc3)oc3cc(O)cc(O)c3c2=O)[C@H](O)[C@H](O)[C@H]1O [zhang 911, Kaempferol-3-O-α-L-rhamnopyranoside]

Same assay, conditions: human, recombinant human CYP1A2, pH 7.4, probe phenacetin (25 μM), O-deethylation to acetaminophen; 1 μM test compound, 25 μM phenacetin, average of duplicate determinations; read-out: % of Control Indication Activity

activity at 1 h, 1 μM [%]	Compound
> 90	COc1ccc(-c2oc3cc(O)cc(O)c3c(=O)c2OC)cc1OC [zhang 759, 3,3′,4′-Tri-Me ether-3,3′,4′,5,7-Pentahydroxyflavone]
< 90	COc1cc(-c2oc3cc(O)c(OC)c(O)c3c(=O)c2O)ccc1O [zhang 817, Spinacetin]
